One assay relates to human whole blood. The format is cell-based. As to conditions: for cytokine stimulation in human whole blood cultures: overnight culture.
Assay [1] concerns Ogawa P. gingivalis LPS stimulated whole blood cells. The assay can be described thus: Inhibition of LPS-induced cytokines in whole blood. The settings on record: 10, 5, 2.5 ug/mL. The assay is classed as cell-based, human. An excerpt: Table 4 provides the maximum levels of IL-4, IL-2 and IL-5 obtained, as well as ratios of TNF to IL-10, and ratios of IL-10 to TNF. Inhibition data for IL-8, reported as a percentage, are also provided on the right hand side of Table 4. For example, 90% inhibition would calculate to a 90% reduction of cytokine levels. MIP-1β results were similar. […]

Assay [2] deals with L. monocytogenes 10403 serotype. Description: Murine Listeria monocytogenes challenge model. The settings on record: 1 μg intravenously in 0.2% TEOA, challenge two days later; FIGS. 14-17. The format is in vivo, Mice. As for the experimental part: This example provides experiments evaluating the induction of non-specific resistance in the murine Listeria monocytogenes challenge model performed using various AGPs and MPL. Mice (5 per group) were treated intravenously with the 1 μg of an AGP or MPL solubilized in 0.2% TEOA. Two days later the mice were challenged intravenously with a ˜10^5 L. monocytogenes 10403 serotype (provided by M. L. Gray, Montana State University, Bozeman, Mont.). Two days after the challenge, the mice were sacrificed and the number of colony forming units (CFUs) in the spleens of individual mice were determined by plating 10-fold serial dilutions of splenic homogenates on tryptic soy agar plates. The degree of protection afforded by a given AGP or MPL was calculated by subtracting the average number of bacteria per spleen (log 10 value) in the group of mice treated with a given compound, from the average number of bacteria per spleen (log 10 value) in a control group that was “sham” treated with vehicle (0.2% TEOA) prior to challenge with L. monocytogenes.

The values that follow come from patent US8318697B2, “Prophylactic and therapeutic treatment of infectious and other diseases with mono- and disaccharide-based compounds” (Corixa Corporation, priority 2000, dated 2012).

Several values for one entry are separate records, joined by “and”; a condition that tells them apart may be missing. Identical values can stand only once. Like-named read-outs stand apart in the source and are kept apart here.

For `CCCCCCCCCCCCCC(=O)O[C@H](CCCCCCCCCCC)CC(=O)N[C@H]1[C@H](OC[C@H](NC(=O)C[C@@H](CCCCCCCCCCC)OC(=O)CCCCCCCCCCCCC)C(=O)O)O[C@H](CO)[C@@H](OP(=O)(O)O)[C@@H]1OC(=O)C[C@@H](CCCCCCCCCCC)OC(=O)CCCCCCCCCCCCC.CCN(CC)CC` [RC-512], in the assay with human whole blood (donor 1), the “IL-1β cba2” value was determined as 3230. The IL10/TNFα cba with human whole blood (donor 2, ratio of IL-10 to TNF) is 0.4. Moreover, the TNFα/IL10 cba with human whole blood (donor 2, ratio of TNF to IL-10) was found to be 3.9. Also, the “% inhib. LPS IL-8” value in assay [1] is −1%.
As to `CCCCCCCCCCC[C@H](CC(=O)N[C@H]1[C@H](OC[C@H](NC(=O)C[C@@H](CCCCCCCCCCC)OC(=O)CCCCCCCCC)C(N)=O)O[C@H](CO)[C@@H](OP(=O)(O)O)[C@@H]1OC(=O)C[C@@H](CCCCCCCCCCC)OC(=O)CCCCCCCCC)OC(=O)CCCCCCCCC.CCN(CC)CC` [RC-522], the IL10/TNFα cba in the assay with human whole blood (donor 1, ratio of IL-10 to TNF) turned out to be 2.7. In the assay with human whole blood (donor 1, ratio of TNF to IL-10), the TNFα/IL10 cba is recorded as 0.4. Besides, the “protection against L. monocytogenes challenge (reduction of log 10 bacteria per spleen vs vehicle)” value in assay [2] was “protection that was equal to or greater than that provided by MPL”.
For `CCCCCCCCCCCCCC(=O)O[C@H](CCCCCCCCCCC)CC(=O)NCCCO[C@@H]1O[C@H](CO)[C@@H](OP(=O)(O)O)[C@H](OC(=O)C[C@@H](CCCCCCCCCCC)OC(=O)CCCCCCCCCCCCC)[C@H]1NC(=O)C[C@@H](CCCCCCCCCCC)OC(=O)CCCCCCCCCCCCC.CCN(CC)CC` [RC-525], the IL10/TNFα cba in the assay on human whole blood (donor 1, ratio of IL-10 to TNF) is listed as 3.7; with human whole blood (donor 2, ratio of IL-10 to TNF) it was 0.7. The TNFα/IL10 cba is on record as 1.8 in the assay with human whole blood (donor 1, ratio of TNF to IL-10) and 1.2 with human whole blood (donor 2, ratio of TNF to IL-10).
`CCCCCCCCCCC[C@H](CC(=O)N[C@H]1[C@H](OC[C@H](NC(=O)C[C@@H](CCCCCCCCCCC)OC(=O)CCCCCCCC)C(=O)O)O[C@H](CO)[C@@H](OP(=O)(O)O)[C@@H]1OC(=O)C[C@@H](CCCCCCCCCCC)OC(=O)CCCCCCCC)OC(=O)CCCCCCCC.CCN(CC)CC` [RC-537]: in the assay with human whole blood, the “IL-1β cba2” value worked out at 8353. In assay [1], the “% inhib. LPS IL-8” value was 33%.
For `CCCCCCCCCCC[C@H](CC(=O)N[C@H]1[C@H](OC[C@H](NC(=O)C[C@@H](CCCCCCCCCCC)OC(=O)CCCCCCCCCC)C(=O)O)O[C@H](CO)[C@@H](OP(=O)(O)O)[C@@H]1OC(=O)C[C@@H](CCCCCCCCCCC)OC(=O)CCCCCCCCCC)OC(=O)CCCCCCCCCC.CCN(CC)CC` [RC-538], in the assay with human whole blood, the IL10/TNFα cba was 0.5 and 0.3; the “IL-1β cba2” value is 7767; the TNFα/IL10 cba is 2.3 and 4. The “% inhib. LPS IL-8” value in assay [1] was −3%.
Take `CCCCCCCCCCC[C@H](CC(=O)N[C@@H](CCO)CO[C@@H]1O[C@H](CO)[C@@H](OP(=O)(O)O)[C@H](OC(=O)C[C@@H](CCCCCCCCCCC)OC(=O)CCCCCCCCC)[C@H]1NC(=O)C[C@@H](CCCCCCCCCCC)OC(=O)CCCCCCCCC)OC(=O)CCCCCCCCC.CCN(CC)CC` [RC-541]: the “protection against L. monocytogenes challenge (reduction of log 10 bacteria per spleen vs vehicle)” value in assay [2] is “protection that was equal to or greater than that provided by MPL”.
As for `CCCCCCCCCCC[C@H](CC(=O)N[C@@H](CO)CO[C@@H]1O[C@H](CO)[C@@H](OP(=O)(O)O)[C@H](OC(=O)C[C@@H](CCCCCCCCCCC)OC(=O)CCCCCCCCC)[C@H]1NC(=O)C[C@@H](CCCCCCCCCCC)OC(=O)CCCCCCCCC)OC(=O)CCCCCCCCC.CCN(CC)CC` [RC-545], the “protection against L. monocytogenes challenge (reduction of log 10 bacteria per spleen vs vehicle)” value in assay [2] is listed as “protection that was equal to or greater than that provided by MPL”.
For `CCCCCCCCCCC[C@H](CC(=O)N[C@H]1[C@H](OC[C@@H](NC(=O)C[C@@H](CCCCCCCCCCC)OC(=O)CCCCCCCCC)C(=O)O)O[C@H](CO)[C@@H](OP(=O)(O)O)[C@@H]1OC(=O)C[C@@H](CCCCCCCCCCC)OC(=O)CCCCCCCCC)OC(=O)CCCCCCCCC.CCN(CC)CC` [RC-547], in assay [2], the “protection against L. monocytogenes challenge (reduction of log 10 bacteria per spleen vs vehicle)” value was “protection that was equal to or greater than that provided by MPL”.
Take `CCCCCCCCCCC[C@H](CC(=O)N[C@H]1[C@H](OC[C@H](NC(=O)C[C@@H](CCCCCCCCCCC)OC(=O)CCCCCC)C(=O)O)O[C@H](CO)[C@@H](OP(=O)(O)O)[C@@H]1OC(=O)C[C@@H](CCCCCCCCCCC)OC(=O)CCCCCC)OC(=O)CCCCCC.CCN(CC)CC` [RC-554]: the “IL-1β cba2” value in the assay with human whole blood (donor 1) is on record as 545. Moreover, the IL10/TNFα cba in the assay with human whole blood (donor 2, ratio of IL-10 to TNF) is 1.1. Moreover, in the assay with human whole blood (donor 2, ratio of TNF to IL-10), the TNFα/IL10 cba came out at 0.9. Moreover, the “cytokine stimulation in human whole blood cultures” value (shortened to “cytokine stimulation”) in the assay with human whole blood is “little if any cytokine stimulation”. The “% inhib. LPS IL-8” value in assay [1] is recorded as 100%.
For the molecule `CCCCCCCCCCC[C@H](CC(=O)N[C@H]1[C@H](OC[C@H](NC(=O)C[C@@H](CCCCCCCCCCC)OC(=O)CCCCCCC)C(=O)O)O[C@H](CO)[C@@H](OP(=O)(O)O)[C@@H]1OC(=O)C[C@@H](CCCCCCCCCCC)OC(=O)CCCCCCC)OC(=O)CCCCCCC.CCN(CC)CC` [RC-555], the “IL-1β cba2” value with human whole blood (donor 1) came to 519. Besides, the IL10/TNFα cba in the assay with human whole blood (donor 2, ratio of IL-10 to TNF) worked out at 1.2. Further, the TNFα/IL10 cba with human whole blood (donor 2, ratio of TNF to IL-10) was determined as 0.8. For the same molecule, the “cytokine stimulation” value in the assay on human whole blood is listed as “little if any cytokine stimulation”. Moreover, in assay [1], the “% inhib. LPS IL-8” value is given as 99%.
As for `CCCCCCCCCCCCCC(=O)O[C@H](CCCCCCCCCCC)CC(=O)NCCCCO[C@@H]1O[C@H](CO)[C@@H](OP(=O)(O)O)[C@H](OC(=O)C[C@@H](CCCCCCCCCCC)OC(=O)CCCCCCCCCCCCC)[C@H]1NC(=O)C[C@@H](CCCCCCCCCCC)OC(=O)CCCCCCCCCCCCC.CCN(CC)CC` [RC-557], the IL10/TNFα cba with human whole blood (donor 1, ratio of IL-10 to TNF) was 0.6. For the same molecule, the TNFα/IL10 cba in the assay with human whole blood (donor 1, ratio of TNF to IL-10) is on record as 0.6; in the assay with human whole blood (donor 2, ratio of TNF to IL-10), 0.5.
As to `CCCCCCCCCCC[C@H](CC(=O)N[C@H]1[C@H](OCCCN(CC(=O)O)C(=O)C[C@@H](CCCCCCCCCCC)OC(=O)CCCCCCCCC)O[C@H](CO)[C@@H](OP(=O)(O)O)[C@@H]1OC(=O)C[C@@H](CCCCCCCCCCC)OC(=O)CCCCCCCCC)OC(=O)CCCCCCCCC.CCN(CC)CC` [RC-558], the “protection against L. monocytogenes challenge (reduction of log 10 bacteria per spleen vs vehicle)” value in assay [2] was “protection that was equal to or greater than that provided by MPL”.
Turning to `CCCCCCCCCCCC(=O)O[C@H](CCCCCCCCCCC)CC(=O)N[C@H]1[C@H](OC[C@H](NC(=O)C[C@@H](CCCCCCCCCCC)OC(=O)CCCCCCCCCCC)C(=O)O)O[C@H](CO)[C@@H](OP(=O)(O)O)[C@@H]1OC(=O)C[C@@H](CCCCCCCCCCC)OC(=O)CCCCCCCCCCC.CCN(CC)CC` [RC-560], in the assay with human whole blood, the “IL-1β cba2” value was determined as 5833. Further, in assay [1], the “% inhib. LPS IL-8” value is given as −1%.
For `CCCCCCCCCCC[C@H](CC(=O)N[C@H]1[C@H](OC[C@H](NC(=O)C[C@@H](CCCCCCCCCCC)OC(=O)CCCCCCCCC)C(=O)O)O[C@H](CO)[C@@H](OP(=O)(O)O)[C@@H]1OC(=O)C[C@@H](CCCCCCCCCCC)OC(=O)CCCCC)OC(=O)CCCCCCCCC.CCN(CC)CC` [RC-566], the “cytokine stimulation” value with human whole blood is on record as “little if any cytokine stimulation”. Moreover, the “% inhib. LPS IL-8” value in assay [1] stood at 93%.
`CCCCCCCCCCC[C@H](CC(=O)N[C@H]1[C@H](OC[C@H](NC(=O)C[C@@H](CCCCCCCCCCC)OC(=O)CCCCCCCCC)C(=O)O)O[C@H](CO)[C@@H](OP(=O)(O)O)[C@@H]1OC(=O)C[C@@H](CCCCCCCCCCC)OC(=O)CCCCC)OC(=O)CCCCC.CCN(CC)CC` [RC-567]: in the assay on human whole blood, the “cytokine stimulation” value is “little if any cytokine stimulation”. The “% inhib. LPS IL-8” value in assay [1] is recorded as 100%.
As to `CCCCCCCCCCC[C@H](CC(=O)N[C@H]1[C@H](OC[C@H](NC(=O)C[C@@H](CCCCCCCCCCC)OC(=O)CCCCC)C(=O)O)O[C@H](CO)[C@@H](OP(=O)(O)O)[C@@H]1OC(=O)C[C@@H](CCCCCCCCCCC)OC(=O)CCCCC)OC(=O)CCCCCCCCC.CCN(CC)CC` [RC-568], the “cytokine stimulation” value with human whole blood is reported as “little if any cytokine stimulation”. The “% inhib. LPS IL-8” value in assay [1] worked out at 96%.
As for `CCCCCCCCCCC[C@H](CC(=O)N[C@H]1[C@H](OC[C@H](NC(=O)C[C@@H](CCCCCCCCCCC)OC(=O)CCCCC)C(=O)O)O[C@H](CO)[C@@H](OP(=O)(O)O)[C@@H]1OC(=O)C[C@@H](CCCCCCCCCCC)OC(=O)CCCCCCCCC)OC(=O)CCCCC.CCN(CC)CC` [RC-570], the “cytokine stimulation” value with human whole blood is given as “little if any cytokine stimulation”. Besides, in assay [1], the “% inhib. LPS IL-8” value was determined as 100%.
Consider `CCCCCCCCCCCCCC(=O)O[C@H](CCCCCCCCCCC)CC(=O)NCCCCCCO[C@@H]1O[C@H](CO)[C@@H](OP(=O)(O)O)[C@H](OC(=O)C[C@@H](CCCCCCCCCCC)OC(=O)CCCCCCCCCCCCC)[C@H]1NC(=O)C[C@@H](CCCCCCCCCCC)OC(=O)CCCCCCCCCCCCC.CCN(CC)CC` [RC-571], for which the IL10/TNFα cba in the assay with human whole blood (donor 1, ratio of IL-10 to TNF) stood at 8.6. In addition, the TNFα/IL10 cba in the assay on human whole blood (donor 1, ratio of TNF to IL-10) is reported as 0.5.
As for `CCCCCCCCCCC[C@H](CC(=O)N[C@@H](CCC(=O)O)CO[C@@H]1O[C@H](CO)[C@@H](OP(=O)(O)O)[C@H](OC(=O)C[C@@H](CCCCCCCCCCC)OC(=O)CCCCCCCCC)[C@H]1NC(=O)C[C@@H](CCCCCCCCCCC)OC(=O)CCCCCCCCC)OC(=O)CCCCCCCCC.CCN(CC)CC` [RC-573], the “protection against L. monocytogenes challenge (reduction of log 10 bacteria per spleen vs vehicle)” value in assay [2] was “protection that was equal to or greater than that provided by MPL”.
